Laboratory results published in ChEMBL document CHEMBL4251651, “Synthesis and biological evaluation of 4-amino-5-cinnamoylthiazoles as chalcone-like anticancer agents” (Eur J Med Chem, 2018).
In brackets after ≈: the same amount, converted by molar mass.

Assays:
MCF7 = experiment: Antiproliferative activity against human MCF7 cells after 48 hrs by MTT assay; format: functional, cell-based; settings: MCF7, 48 h
HepG2 [1] = experiment: Antiproliferative activity against human HepG2 cells after 48 hrs by MTT assay; format: functional, cell-based; settings: HepG2, 48 h
SW480 = experiment: Antiproliferative activity against human SW480 cells after 48 hrs by MTT assay; format: functional, cell-based; settings: SW480, 48 h
HepG2 [2] = experiment: Induction of apoptosis in human HepG2 cells assessed as necrotic cells at IC50 after 48 hrs by Annexin V-FITC/propidium iodide staining based flow cytometry (reference value: 7.77%); format: functional
HepG2 [3] = experiment: Induction of apoptosis in human HepG2 cells assessed as late apoptotic cells at IC50 after 48 hrs by Annexin V-FITC/propidium iodide staining based flow cytometry (reference value: 18.1%); format: functional
HepG2 [4] = experiment: Induction of apoptosis in human HepG2 cells assessed as early apoptotic cells at IC50 after 48 hrs by Annexin V-FITC/propidium iodide staining based flow cytometry (reference value: 11.7%); format: functional
HepG2 [5] = experiment: Induction of apoptosis in human HepG2 cells assessed as viable cells at IC50 after 48 hrs by Annexin V-FITC/propidium iodide staining based flow cytometry (reference value: 62.4%); format: functional
HepG2 [6] = experiment: Induction of apoptosis in human HepG2 cells assessed as necrotic cells at 1.2 times IC50 after 48 hrs by Annexin V-FITC/propidium iodide staining based flow cytometry (reference value: 7.77%); format: functional
HepG2 [7] = experiment: Induction of apoptosis in human HepG2 cells assessed as late apoptotic cells at 1.2 times IC50 after 48 hrs by Annexin V-FITC/propidium iodide staining based flow cytometry (reference value: 18.1%); format: functional
HepG2 [8] = experiment: Induction of apoptosis in human HepG2 cells assessed as early apoptotic cells at 1.2 times IC50 after 48 hrs by Annexin V-FITC/propidium iodide staining based flow cytometry (reference value: 11.7%); format: functional
HepG2 [9] = experiment: Induction of apoptosis in human HepG2 cells assessed as viable cells at 1.2 times IC50 after 48 hrs by Annexin V-FITC/propidium iodide staining based flow cytometry (reference value: 62.4%); format: functional
HepG2 [10] = experiment: Cell cycle arrest in human HepG2 cells assessed as accumulation at G1 phase at IC50 after 48 hrs by propidium iodide staining-based flow cytometry (reference value: 29.83%); format: functional
HepG2 [11] = experiment: Cell cycle arrest in human HepG2 cells assessed as accumulation at G1 phase at 1.2 times IC50 after 48 hrs by propidium iodide staining-based flow cytometry (reference value: 29.83%); format: functional
HepG2 [12] = experiment: Cell cycle arrest in human HepG2 cells assessed as accumulation at G2 phase at IC50 after 48 hrs by propidium iodide staining-based flow cytometry (reference value: 38.82%); format: functional
HepG2 [13] = experiment: Cell cycle arrest in human HepG2 cells assessed as accumulation at G2 phase at 1.2 times IC50 after 48 hrs by propidium iodide staining-based flow cytometry (reference value: 38.82%); format: functional
HepG2 [14] = experiment: Cell cycle arrest in human HepG2 cells assessed as accumulation at S phase at IC50 after 48 hrs by propidium iodide staining-based flow cytometry (reference value: 51.72%); format: functional
HepG2 [15] = experiment: Cell cycle arrest in human HepG2 cells assessed as accumulation at S phase at 1.2 times IC50 after 48 hrs by propidium iodide staining-based flow cytometry (reference value: 51.72%); format: functional

Structure (SMILES) | IC50 (MCF7) | IC50 (HepG2 [1]) | IC50 (SW480) | also measured
Nc1nc(N2CCCCC2)sc1C(=O)/C=C/c1ccc(Br)cc1 | 25.6 µg/mL (≈ 65.3 µM) | 17.4 µg/mL (≈ 44.4 µM) | 31.6 µg/mL (≈ 80.5 µM) | –
Nc1nc(N2CCCCC2)sc1C(=O)/C=C/c1ccc(Cl)cc1 | 19.5 µg/mL (≈ 56.1 µM) | 12 µg/mL (≈ 34.5 µM) | 29.4 µg/mL (≈ 84.5 µM) | Activity (HepG2 [2]): 18.5%; Activity (HepG2 [3]): 34.4%; Activity (HepG2 [4]): 2.84%; Activity (HepG2 [5]): 44.3%; Activity (HepG2 [6]): 17.2%; Activity (HepG2 [7]): 34.7%; Activity (HepG2 [8]): 3.31%; Activity (HepG2 [9]): 44.8%; Activity (HepG2 [10]): 44.47%; Activity (HepG2 [11]): 48.58%; Activity (HepG2 [12]): 27.88%; Activity (HepG2 [13]): 37.65%; Activity (HepG2 [14]): 28.24%; Activity (HepG2 [15]): 18.26%
Nc1nc(N2CCCCC2)sc1C(=O)/C=C/c1ccc([N+](=O)[O-])cc1 | 14.6 µg/mL (≈ 40.7 µM) | 15.4 µg/mL (≈ 43 µM) | 25.6 µg/mL (≈ 71.4 µM) | Activity (HepG2 [2]): 24.2%; Activity (HepG2 [3]): 27.7%; Activity (HepG2 [4]): 2.1%; Activity (HepG2 [5]): 46%; Activity (HepG2 [6]): 24.2%; Activity (HepG2 [7]): 47.1%; Activity (HepG2 [8]): 2.53%; Activity (HepG2 [9]): 26.1%; Activity (HepG2 [10]): 47.1%; Activity (HepG2 [11]): 54.18%; Activity (HepG2 [12]): 30.17%; Activity (HepG2 [13]): 25.23%; Activity (HepG2 [14]): 27.92%; Activity (HepG2 [15]): 33.47%
Nc1nc(N2CCCC2)sc1C(=O)/C=C/c1ccc(Cl)cc1 | 24 µg/mL (≈ 71.9 µM) | 27 µg/mL (≈ 80.9 µM) | 19.9 µg/mL (≈ 59.6 µM) | –
COc1ccccc1/C=C/C(=O)c1sc(N2CCCC2)nc1N | > 50 µg/mL | 35.1 µg/mL (≈ 107 µM) | 17 µg/mL (≈ 51.6 µM) | –
Nc1nc(N2CCCCC2)sc1C(=O)/C=C/c1ccccc1 | 22.4 µg/mL (≈ 71.5 µM) | 16.6 µg/mL (≈ 53 µM) | 28.1 µg/mL (≈ 89.7 µM) | –
Nc1nc(N2CCCC2)sc1C(=O)/C=C/c1ccc(Br)cc1 | 41.3 µg/mL (≈ 109 µM) | 30 µg/mL (≈ 79.3 µM) | 15.8 µg/mL (≈ 41.8 µM) | –
Nc1nc(N2CCCC2)sc1C(=O)/C=C/c1ccccc1 | 21.7 µg/mL (≈ 72.5 µM) | 29.6 µg/mL (≈ 98.9 µM) | 31.7 µg/mL (≈ 106 µM) | –
Nc1nc(N2CCCC2)sc1C(=O)/C=C/c1ccc([N+](=O)[O-])cc1 | 26.3 µg/mL (≈ 76.4 µM) | 23.5 µg/mL (≈ 68.2 µM) | 22.4 µg/mL (≈ 65 µM) | –
COc1cc([C@@H]2c3cc4c(cc3[C@@H](O[C@@H]3O[C@@H]5CO[C@@H](C)O[C@H]5[C@H](O)[C@H]3O)[C@H]3COC(=O)[C@H]23)OCO4)cc(OC)c1O [ETOPOSIDE] | – | – | – | Activity (HepG2 [2]): 35.5%; Activity (HepG2 [3]): 24.7%; Activity (HepG2 [4]): 2.59%; Activity (HepG2 [5]): 37.1%

Now from value to compound, other results behind:

IC50 (MCF7) | IC50 (HepG2 [1]) | IC50 (SW480) | Structure (SMILES) | also measured
18.6 µg/mL (≈ 48.4 µM) | 12.8 µg/mL (≈ 33.3 µM) | 33.2 µg/mL (≈ 86.4 µM) | Nc1nc(N2CCOCC2)sc1C(=O)/C=C/c1ccc(Cl)cc1Cl | –
40 µg/mL (≈ 111 µM) | 27.6 µg/mL (≈ 76.6 µM) | 43.3 µg/mL (≈ 120 µM) | Nc1nc(N2CCOCC2)sc1C(=O)/C=C/c1ccc([N+](=O)[O-])cc1 | –
> 50 µg/mL | 35.8 µg/mL (≈ 102 µM) | 33.4 µg/mL (≈ 95.5 µM) | Nc1nc(N2CCOCC2)sc1C(=O)/C=C/c1ccc(Cl)cc1 | –
12.6 µg/mL (≈ 34.2 µM) | 10.6 µg/mL (≈ 28.8 µM) | 18.4 µg/mL (≈ 50 µM) | Nc1nc(N2CCCC2)sc1C(=O)/C=C/c1ccc(Cl)cc1Cl | Activity (HepG2 [2]): 40.8%; Activity (HepG2 [3]): 13.2%; Activity (HepG2 [4]): 1.43%; Activity (HepG2 [5]): 44.6%; Activity (HepG2 [6]): 24.4%; Activity (HepG2 [7]): 44.3%; Activity (HepG2 [8]): 7.12%; Activity (HepG2 [9]): 24.2%; Activity (HepG2 [10]): 22.09%; Activity (HepG2 [11]): 27.04%; Activity (HepG2 [12]): 64.84%; Activity (HepG2 [13]): 68.37%; Activity (HepG2 [14]): 14.64%; Activity (HepG2 [15]): 16.34%
25.5 µg/mL (≈ 66.7 µM) | 22.9 µg/mL (≈ 59.9 µM) | 36.8 µg/mL (≈ 96.3 µM) | Nc1nc(N2CCCCC2)sc1C(=O)/C=C/c1ccc(Cl)cc1Cl | –
> 50 µg/mL | > 50 µg/mL | 32.7 µg/mL (≈ 82.9 µM) | Nc1nc(N2CCOCC2)sc1C(=O)/C=C/c1ccc(Br)cc1 | –
34.7 µg/mL (≈ 110 µM) | 21.4 µg/mL (≈ 67.9 µM) | 30.5 µg/mL (≈ 96.7 µM) | Nc1nc(N2CCOCC2)sc1C(=O)/C=C/c1ccccc1 | –
